# Results from ChEMBL document CHEMBL1123847, “Synthesis and structure-activity relationship of 1-aryl-6,8-difluoroquinolone antibacterial agents” (1987).
# Experiments:
# Assay type in all cases: functional
# Escherichia coli [1] = assay: Compound was evaluated in vivo for antibacterial activity against Escherichia coli Juhl (100 X LD50) (p.o. administration); Range is between (2.8-6.5); details: po
# Escherichia coli [2] = assay: Compound was evaluated in vivo for antibacterial activity against Escherichia coli Juhl (100 X LD50) (s.c. administration); Range is between (0.3-1.3); details: sc
# Klebsiella aerogenes = assay: In vitro antibacterial activity against Enterobacter aerogenes ATCC 13048
# Escherichia coli [3] = assay: Compound was evaluated in vivo for antibacterial activity against Escherichia coli Juhl (100 X LD50) (p.o. administration); Range is between (3.8-11.2)
# Escherichia coli [4] = assay: In vitro antibacterial activity against Escherichia coli Juhl
# Klebsiella pneumoniae = assay: In vitro antibacterial activity against Klebsiella pneumoniae 8045
# Pseudomonas aeruginosa [5] = assay: Compound was evaluated in vivo for antibacterial activity against Pseudomonas aeruginosa 5007 (100 X LD50) (s.c. administration); Range is between (1.0-2.5); details: sc
# Pseudomonas aeruginosa [6] = assay: In vitro antibacterial activity against Pseudomonas aeruginosa K799/WT
# Pseudomonas aeruginosa [7] = assay: Compound was evaluated in vivo for antibacterial activity against Pseudomonas aeruginosa 5007 (100 X LD50);
# [8] = test system: Staphylococcus epidermidis; assay: In vitro antibacterial activity against Staphylococcus epidermis 3519
# Streptococcus pyogenes = assay: In vitro antibacterial activity against Streptococcus pyogenes 930
# Staphylococcus aureus [9] = assay: Compound was evaluated in vivo for antibacterial activity against Staphylococcus aureus NCTC 10649 (100 X LD50) (s.c. administration); Range is between (1.0-2.5); details: sc
# Staphylococcus aureus [10] = assay: In vitro antibacterial activity against Staphylococcus aureus CMX 686B
# Staphylococcus aureus [11] = assay: In vitro antibacterial activity against Staphylococcus aureus ATCC 6538P
# Enterococcus faecium = assay: In vitro antibacterial activity against Streptococcus faecium ATCC 8043
# Acinetobacter = assay: In vitro antibacterial activity against Acinetobacter CMX 669
# Pseudomonas aeruginosa [12] = assay: In vitro antibacterial activity against Pseudomonas aeruginosa 5007
# Pseudomonas aeruginosa [13] = assay: Compound was evaluated in vivo for antibacterial activity against Pseudomonas aeruginosa 5007 (100 X LD50) (p.o. administration); Range is between (13.4-34.4); details: po
# Escherichia coli [14] = assay: […] against Escherichia coli Juhl (100 X LD50); Range is between (2.0-5.0)
# Escherichia coli [15] = assay: Compound was evaluated in vivo for antibacterial activity against Escherichia coli Juhl (100 X LD50) (s.c. administration); range is between (0.6-2.5); details: sc
# Escherichia coli [16] = assay: Compound was evaluated in vivo for antibacterial activity against Escherichia coli Juhl (100 X LD50)
# Pseudomonas aeruginosa [17] = assay: […] against Pseudomonas aeruginosa 5007 (100 X LD50) (peroral administration); Range is between (15.8-[…]); details: po
# Pseudomonas aeruginosa [18] = assay: […] against Pseudomonas aeruginosa 5007 (100 X LD50) (subcutaneous administration); Range is between (4.9-8.1); details: sc
# Pseudomonas aeruginosa [19] = assay: Compound was evaluated in vivo for antibacterial activity against Pseudomonas aeruginosa 5007 (100 X LD50) (p.o. administration); Range is between (15.8-39.6).; details: po
# Pseudomonas aeruginosa [20] = assay: Compound was evaluated in vivo for antibacterial activity against Pseudomonas aeruginosa 5007 (100 X LD50) (s.c. administration); Range is between (4.9-8.1); details: sc
# Staphylococcus aureus [21] = assay: Compound was evaluated in vivo for antibacterial activity against Staphylococcus aureus NCTC 10649 (100 X LD50) (p.o. administration); Range is between (7.9-19-7).; details: po
# Staphylococcus aureus [22] = assay: In vitro mouse protection test against Staphylococcus aureus NCTC 10649 (100 X LD50) (s.c. administration); Range is between (1.0-2.5); details: sc
# Staphylococcus aureus [23] = assay: In vitro mouse protection test against Staphylococcus aureus NCTC 10649 (100 X LD50),(peroral administration); Range is between (7.9-19-7); details: po
# Escherichia coli [24] = assay: […] against Escherichia coli Juhl (100 X LD50) (s.c. administration); Range is between (0.6-1.5); details: sc
# Escherichia coli [25] = assay: Compound was evaluated in vivo for antibacterial activity against Escherichia coli Juhl (100 X LD50) (p.o. administration); Range is between (2.0-5.0); details: po
# Escherichia coli [26] = assay: […] against Escherichia coli Juhl (100 X LD50) (s.c. administration); Range is between(1.0-1.8)
SMILES,MIC (Klebsiella aerogenes) [µg/mL],MIC (Escherichia coli [4]) [µg/mL],MIC (Klebsiella pneumoniae) [µg/mL],MIC (Pseudomonas aeruginosa [6]) [µg/mL],MIC [8] [µg/mL],MIC (Streptococcus pyogenes) [µg/mL],ED50 (Staphylococcus aureus [9]) [mg/kg],MIC (Staphylococcus aureus [10]) [µg/mL],MIC (Staphylococcus aureus [11]) [µg/mL],MIC (Enterococcus faecium) [µg/mL],MIC (Acinetobacter) [µg/mL],MIC (Pseudomonas aeruginosa [12]) [µg/mL],also measured
Cl.O=C(O)c1cn(-c2ccc(F)cc2)c2cc(N3CCNCC3)c(F)cc2c1=O [SARAFLOXACIN HYDROCHLORIDE],0.2,0.05,0.02,0.39,0.39,0.78,1.6,0.2,0.2,1.56,0.2,0.39,ED50 (Escherichia coli [1]): 4.3 mg/kg; ED50 (Escherichia coli [2]): 0.6 mg/kg; ED50 mg/kg (Escherichia coli [3]): 6.5; ED50 (Pseudomonas aeruginosa [5]): 1.6 mg/kg; MIC (Pseudomonas aeruginosa [7]): 0.39 µg/mL; ED50 (Pseudomonas aeruginosa [13]): 21.4 mg/kg
NC1CCN(c2c(F)cc3c(=O)c(C(=O)O)cn(-c4ccc(F)cc4F)c3c2F)C1 (configuration not stated),0.2,0.1,0.1,0.78,0.39,0.78,–,0.2,0.2,1.56,0.39,1.56,–
NC1CCN(c2cc3c(cc2F)c(=O)c(C(=O)O)cn3-c2ccc(F)cc2)C1 (configuration not stated),0.05,0.02,0.02,0.2,0.05,0.1,–,0.05,0.05,0.78,0.2,0.2,–
O=C(O)c1cn(-c2ccc(F)cc2)c2c(F)c(N3CCNCC3)c(F)cc2c1=O,0.1,0.1,0.05,0.39,0.78,1.56,1.6,0.39,0.39,6.2,0.39,0.78,ED50 (Escherichia coli [14]): 3.2 mg/kg; ED50 (Escherichia coli [15]): 1 mg/kg; MIC (Escherichia coli [16]): 0.1 µg/mL; ED50 (Pseudomonas aeruginosa [17]): 25 mg/kg; ED50 (Pseudomonas aeruginosa [18]): 6.3 mg/kg; ED50 (Pseudomonas aeruginosa [19]): 25 mg/kg; ED50 (Pseudomonas aeruginosa [20]): 6.3 mg/kg; ED50 (Staphylococcus aureus [21]): 12.5 mg/kg; ED50 (Staphylococcus aureus [22]): 1.6 mg/kg; ED50 (Staphylococcus aureus [23]): 12.5 mg/kg; ED50 (Escherichia coli [24]): 1 mg/kg; ED50 (Escherichia coli [25]): 3.2 mg/kg
CN1CCN(c2c(F)cc3c(=O)c(C(=O)O)cn(-c4ccc(F)cc4)c3c2F)CC1,0.78,0.39,0.39,3.1,0.78,3.1,–,0.39,0.39,3.1,0.39,3.1,ED50 mg/kg (Escherichia coli [26]): 1.3
CN1CCN(c2cc3c(cc2F)c(=O)c(C(=O)O)cn3-c2ccc(F)cc2)CC1 [DIFLOXACIN],0.78,0.2,0.1,1.56,0.39,1.56,–,0.2,0.2,1.56,0.78,0.78,–
